Laboratory results: ChEMBL document CHEMBL1201862, “PubChem BioAssay data set” (2004)
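All cell lines were grown in 96-well plates and treated with compound for 48 hours. The concentration for 50% growth inhibition is given as GI50.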 The source made the active and inactive calls. No stated cut-off is given here; in the data, active = GI50 up to about 1.1 µM and inactive = higher.

What was measured:
Assay in all cases: NCI-60 cell line screen, 48 h
HOP-18 = system: HOP-18
DU-145 = system: DU-145
DMS-273 = system: DMS-273
Hs-578T = system: Hs-578T
NCI-H522 = system: NCI-H522
HCC 2998 = system: HCC 2998
XF498 = system: XF498
MDA-MB-435 = system: MDA-MB-435
SNB-75 = system: SNB-75
NCI-H460 = system: NCI-H460
SK-MEL-2 = system: SK-MEL-2
KM-20L2 = system: KM-20L2
SF-539 = system: SF-539
T47D = system: T47D
A549 = system: A549
DLD-1 = system: DLD-1
HOP-92 = system: HOP-92
LXFL 529 = system: LXFL 529
OVCAR-5 = system: OVCAR-5
NCI-H226 = system: NCI-H226
HCT-15 = system: HCT-15
SNB-78 = system: SNB-78
K562 = system: K562
UACC-62 = system: UACC-62
ACHN = system: ACHN
A498 = system: A498
OVCAR-4 = system: OVCAR-4
RPMI-8226 = system: RPMI-8226
SK-MEL-28 = system: SK-MEL-28
SK-OV-3 = system: SK-OV-3
UO-31 = system: UO-31
Malme-3M = system: Malme-3M
M14 = system: M14
786-0 = system: 786-0
U-251 = system: U-251
SK-MEL-5 = system: SK-MEL-5
DMS-114 = system: DMS-114
KM12 = system: KM12
HL-60 = system: HL-60
HOP-62 = system: HOP-62
SF-268 = system: SF-268
NCI-H23 = system: NCI-H23
CAKI-1 = system: CAKI-1
SF-295 = system: SF-295
EKVX = system: EKVX
HT-29 = system: HT-29
COLO 205 = system: COLO 205
M19-MEL = system: M19-MEL
LOX IMVI = system: LOX IMVI
OVCAR-3 = system: OVCAR-3
SNB-19 = system: SNB-19
UACC-257 = system: UACC-257
SW-620 = system: SW-620
CCRF-CEM = system: CCRF-CEM
TK-10 = system: TK-10
MOLT-4 = system: MOLT-4
IGROV-1 = system: IGROV-1
SR = system: SR
OVCAR-8 = system: OVCAR-8
RXF 393 = system: RXF 393
SN12C = system: SN12C
HCT-116 = system: HCT-116

O=C1C(Cl)=C(N2CCN(CCOCCO)CC2)C(=O)c2c(O)ccc(O)c21
GI50 (HOP-18): 1.38 µM (inactive) | GI50 (DU-145): 1.85 µM (inactive) | GI50 (DMS-273): 1.05 µM (active) | GI50 (Hs-578T): 2.64 µM (inactive) | GI50 (NCI-H522): 0.174 µM (active) | GI50 (HCC 2998): 1.93 µM (inactive) | GI50 (XF498): 0.557 µM (active) | GI50 (MDA-MB-435): 0.295 µM (active) | GI50 (SNB-75): 1.41 µM (inactive) | GI50 (NCI-H460): 3.1 µM (inactive) | GI50 (SK-MEL-2): 0.404 µM (active) | GI50 (KM-20L2): 0.716 µM (active) | GI50 (SF-539): 1.3 µM (inactive) | GI50 (T47D): 0.438 µM (active) | GI50 (A549): 2.71 µM (inactive) | GI50 (DLD-1): 0.195 µM (active) | GI50 (HOP-92): 0.231 µM (active) | GI50 (LXFL 529): 0.224 µM (active) | GI50 (OVCAR-5): 1.79 µM (inactive) | GI50 (NCI-H226): 1.99 µM (inactive) | GI50 (HCT-15): 0.292 µM | GI50 (SNB-78): 0.363 µM (active)

Clc1cc2nsnc2c(Cl)n1
GI50 (HOP-18): 17.5 µM (inactive) | GI50 (K562): 5.41 µM (inactive) | GI50 (UACC-62): 26.5 µM (inactive) | GI50 (ACHN): 32.5 µM (inactive) | GI50 (DMS-273): 36.3 µM (inactive) | GI50 (A498): > 100 µM (inactive) | GI50 (OVCAR-4): 17.1 µM (inactive) | GI50 (RPMI-8226): 22.2 µM (inactive) | GI50 (SK-MEL-28): 20.1 µM (inactive) | GI50 (NCI-H522): 18.4 µM (inactive) | GI50 (HCC 2998): > 100 µM (inactive) | GI50 (SK-OV-3): 2.62 µM (inactive) | GI50 (XF498): 17.3 µM (inactive) | GI50 (UO-31): 20.6 µM (inactive) | GI50 (NCI-H460): 38.5 µM (inactive) | GI50 (SK-MEL-2): 17.2 µM (inactive) | GI50 (KM-20L2): 37.6 µM (inactive) | GI50 (Malme-3M): 16.3 µM (inactive) | GI50 (SF-539): 22.9 µM (inactive) | GI50 (M14): 15.2 µM (inactive) | GI50 (A549): 50 µM (inactive) | GI50 (786-0): 16.9 µM (inactive) | GI50 (DLD-1): 20.3 µM (inactive) | GI50 (U-251): 20.3 µM (inactive) | GI50 (HOP-92): 16.6 µM (inactive) | GI50 (SK-MEL-5): 16.9 µM (inactive) | GI50 (LXFL 529): 14.4 µM (inactive) | GI50 (DMS-114): 15.6 µM (inactive) | GI50 (KM12): 47.2 µM (inactive) | GI50 (HL-60): 14.1 µM (inactive) | GI50 (HOP-62): > 100 µM (inactive) | GI50 (SF-268): 26.4 µM (inactive) | GI50 (NCI-H23): 19.1 µM (inactive) | GI50 (CAKI-1): 10.8 µM (inactive) | GI50 (SF-295): 41.5 µM (inactive) | GI50 (EKVX): > 100 µM (inactive) | GI50 (HT-29): 21.7 µM (inactive) | GI50 (OVCAR-5): 43 µM (inactive) | GI50 (COLO 205): 15.3 µM (inactive) | GI50 (NCI-H226): 20.6 µM (inactive) | GI50 (M19-MEL): 24.7 µM (inactive) | GI50 (LOX IMVI): 33 µM (inactive) | GI50 (OVCAR-3): 17.9 µM (inactive) | GI50 (SNB-19): 19 µM (inactive) | GI50 (UACC-257): 26.7 µM (inactive) | GI50 (SW-620): 10.2 µM (inactive) | GI50 (CCRF-CEM): 6.03 µM (inactive) | GI50 (TK-10): 20.9 µM (inactive) | GI50 (MOLT-4): 14.2 µM (inactive) | GI50 (IGROV-1): 26.2 µM (inactive) | GI50 (HCT-15): 21.3 µM | GI50 (SNB-78): 56.4 µM (inactive)

O=C(CCc1ccccc1)CC1OC(=O)C(Cl)=C1Cl (centres undefined)
GI50 (HOP-18): 23.3 µM (inactive) | GI50 (SR): 30.5 µM (inactive) | GI50 (K562): 35 µM (inactive) | GI50 (OVCAR-8): 20 µM (inactive) | GI50 (UACC-62): 17 µM (inactive) | GI50 (ACHN): 20.5 µM (inactive) | GI50 (DMS-273): 22.3 µM (inactive) | GI50 (A498): 34 µM (inactive) | GI50 (OVCAR-4): 96.4 µM (inactive) | GI50 (RPMI-8226): 32.6 µM (inactive) | GI50 (SK-MEL-28): 16.9 µM (inactive) | GI50 (NCI-H522): 14.5 µM (inactive) | GI50 (HCC 2998): 18.6 µM (inactive) | GI50 (SK-OV-3): 45.6 µM (inactive) | GI50 (XF498): 25.7 µM (inactive) | GI50 (SNB-75): 53.6 µM (inactive) | GI50 (UO-31): 19.3 µM (inactive) | GI50 (NCI-H460): 33.5 µM (inactive) | GI50 (SK-MEL-2): 19.1 µM (inactive) | GI50 (KM-20L2): 13.2 µM (inactive) | GI50 (Malme-3M): 18.2 µM (inactive) | GI50 (SF-539): 31 µM (inactive) | GI50 (RXF 393): 29.5 µM (inactive) | GI50 (M14): 16.5 µM (inactive) | GI50 (A549): 43.4 µM (inactive) | GI50 (786-0): 19.1 µM (inactive) | GI50 (DLD-1): 18 µM (inactive) | GI50 (U-251): 16.4 µM (inactive) | GI50 (HOP-92): 23.9 µM (inactive) | GI50 (SN12C): 18.5 µM (inactive) | GI50 (SK-MEL-5): 20.8 µM (inactive) | GI50 (LXFL 529): 15.8 µM (inactive) | GI50 (KM12): 17.5 µM (inactive) | GI50 (HOP-62): 26.2 µM (inactive) | GI50 (SF-268): 27.5 µM (inactive) | GI50 (NCI-H23): 19.1 µM (inactive) | GI50 (CAKI-1): 29.5 µM (inactive) | GI50 (SF-295): 27.4 µM (inactive) | GI50 (HCT-116): 14.8 µM (inactive) | GI50 (EKVX): 38.9 µM (inactive) | GI50 (HT-29): 19.2 µM (inactive) | GI50 (OVCAR-5): 20 µM (inactive) | GI50 (COLO 205): 17.2 µM (inactive) | GI50 (M19-MEL): 17.7 µM (inactive) | GI50 (LOX IMVI): 18.6 µM (inactive) | GI50 (OVCAR-3): 20.3 µM (inactive) | GI50 (SNB-19): 20.9 µM (inactive) | GI50 (UACC-257): 21.3 µM (inactive) | GI50 (SW-620): 12.1 µM (inactive) | GI50 (CCRF-CEM): 29.6 µM (inactive) | GI50 (TK-10): 33.4 µM (inactive) | GI50 (MOLT-4): 33 µM (inactive) | GI50 (IGROV-1): 22.2 µM (inactive) | GI50 (HCT-15): 16 µM | GI50 (SNB-78): 46.5 µM (inactive)
